Assays:
Assay type in all cases: cell-based
[1] = system: Enterococcus faecium and faecalis (RESISTANT); details: geometric mean of 4-6 isolates
Protocol: (§1) The antibacterial efficacy of the present compounds is illustrated by Table II. The minimal inhibitory concentrations (MICs) were determined using a standard broth micro-dilution assay.

[2] = system: Enterococcus faecium and faecalis (SENSITIVE); details: geometric mean of 4-6 isolates
Protocol: as §1

[3] = system: Staphylococcus aureus 446; experiment: MIC, standard broth micro-dilution assay, SA 446
Protocol: as §1

[4] = system: Staphylococcus aureus 489; experiment: MIC, standard broth micro-dilution assay, SA 489
Protocol: as §1

[5] = system: Staphylococcus aureus 447; experiment: MIC, standard broth micro-dilution assay, SA 447
Protocol: as §1

[6] = system: Staphylococcus haemolyticus 105; experiment: MIC, standard broth micro-dilution assay, SH 105
Protocol: as §1

[7] = system: Staphylococcus haemolyticus 415; experiment: MIC, standard broth micro-dilution assay, SH 415
Protocol: as §1

[8] = system: Staphylococcus epidermidis 270; experiment: MIC, standard broth micro-dilution assay, SE 270
Protocol: as §1

[9] = system: Streptococcus pyogenes C203; experiment: MIC, standard broth micro-dilution assay, SPY C203
Protocol: as §1

[10] = system: Streptococcus pneumoniae P1; experiment: MIC, standard broth micro-dilution assay, SPN P1
Protocol: as §1

| SMILES | Minimal Inhibitory Concentration (MIC) RESISTANT [1] | Minimal Inhibitory Concentration (MIC) SENSITIVE [2] | Minimal Inhibitory Concentration (MIC) SA 446 [3] | Minimal Inhibitory Concentration (MIC) SA 489 [4] | Minimal Inhibitory Concentration (MIC) SA 447 [5] | Minimal Inhibitory Concentration (MIC) SH 105 [6] | Minimal Inhibitory Concentration (MIC) SH 415 [7] | Minimal Inhibitory Concentration (MIC) SE 270 [8] | Minimal Inhibitory Concentration (MIC) SPY C203 [9] | Minimal Inhibitory Concentration (MIC) SPN P1 [10] |
| --- | --- | --- | --- | --- | --- | --- | --- | --- | --- | --- |
| CC(C)CC(C(=O)NC1C(=O)NC(CC(N)=O)C(=O)NC2C(=O)NC3C(=O)NC(C(=O)NC(C(=O)O)c4cc(O)cc(O)c4-c4cc3ccc4O)C(OC3CC(C)(N)C(O)C(C)O3)c3ccc(c(Cl)c3)Oc3cc2cc(c3OC2OC(CO)C(O)C(O)C2OC2CC(C)(N)C(O)C(C)O2)Oc2ccc(cc2Cl)C1O)N(C)C(=S)Nc1ccccc1 (stereo not shown) [Example 1, N^LEU -(PHENYLTHIOCARBAMOYL)A82846B] | > 128 | 16 | 8 | 4 | 8 | 64 | > 64 | 8 | 2 | 2 |
| CC(C)C[C@H](C(=O)N[C@H]1C(=O)N[C@@H](CC(N)=O)C(=O)N[C@H]2C(=O)N[C@H]3C(=O)N[C@H](C(=O)N[C@H](C(=O)O)c4cc(O)cc(O)c4-c4cc3ccc4O)[C@H](O[C@H]3C[C@](C)(N)[C@@H](O)[C@H](C)O3)c3ccc(c(Cl)c3)Oc3cc2cc(c3O[C@@H]2O[C@H](CO)[C@@H](O)[C@H](O)[C@H]2O[C@H]2C[C@](C)(NCc3ccc(Cl)cc3)[C@@H](O)[C@H](C)O2)Oc2ccc(cc2Cl)[C@H]1O)N(C)C(=S)Nc1ccccc1 [Example 2, N^LEU -(PHENYLTHIOCARBAMOYL)-N^DISACC -(p-CHLOROBENZYL)A82846B] | 128 | 3.4 | 2 | 2 | 2 | 8 | 16 | 4 | 0.125 | 0.25 |
| CC(C)C[C@H](C(=O)N[C@H]1C(=O)N[C@@H](CC(N)=O)C(=O)N[C@H]2C(=O)N[C@H]3C(=O)N[C@H](C(=O)N[C@H](C(=O)O)c4cc(O)cc(O)c4-c4cc3ccc4O)[C@H](O[C@H]3C[C@](C)(N)[C@@H](O)[C@H](C)O3)c3ccc(c(Cl)c3)Oc3cc2cc(c3O[C@@H]2O[C@H](CO)[C@@H](O)[C@H](O)[C@H]2O[C@H]2C[C@](C)(NCc3ccc(Oc4ccccc4)cc3)[C@@H](O)[C@H](C)O2)Oc2ccc(cc2Cl)[C@H]1O)N(C)C(=S)Nc1ccccc1 [Example 3, N^LEU -(PHENYLTHIOCARBAMOYL)-N^DISACC -(p-PHENOXYBENZYL)-A82846B] | 16 | 1.7 | 4 | 2 | 1 | 2 | 2 | 1 | ≤ .06 | – |
| CC(C)CC(C(=O)NC1C(=O)NC(CC(N)=O)C(=O)NC2C(=O)NC3C(=O)NC(C(=O)NC(C(=O)O)c4cc(O)cc(O)c4-c4cc3ccc4O)C(OC3CC(C)(N)C(O)C(C)O3)c3ccc(c(Cl)c3)Oc3cc2cc(c3OC2OC(CO)C(O)C(O)C2OC2CC(C)(N)C(O)C(C)O2)Oc2ccc(cc2Cl)C1O)N(C)C(=S)Nc1ccc(Cl)cc1 (stereo not shown) [Example 8, N^LEU -((p-CHLOROPHENYL)-THIOCARBAMOYL)A82846B] | > 128 | 8 | 2 | 2 | 4 | 16 | 64 | 8 | – | – |
| COc1ccc(NC(=S)N(C)C(CC(C)C)C(=O)NC2C(=O)NC(CC(N)=O)C(=O)NC3C(=O)NC4C(=O)NC(C(=O)NC(C(=O)O)c5cc(O)cc(O)c5-c5cc4ccc5O)C(OC4CC(C)(N)C(O)C(C)O4)c4ccc(c(Cl)c4)Oc4cc3cc(c4OC3OC(CO)C(O)C(O)C3OC3CC(C)(N)C(O)C(C)O3)Oc3ccc(cc3Cl)C2O)cc1 (stereo not shown) [Example 9, N^LEU -((p-METHOXYPHENYL)-THIOCARBAMOYL)A82846B] | > 128 | 21 | 8 | 4 | 8 | 32 | 32 | 16 | – | – |
| CC(C)CC(C(=O)NC1C(=O)NC(CC(N)=O)C(=O)NC2C(=O)NC3C(=O)NC(C(=O)NC(C(=O)O)c4cc(O)cc(O)c4-c4cc3ccc4O)C(OC3CC(C)(N)C(O)C(C)O3)c3ccc(c(Cl)c3)Oc3cc2cc(c3OC2OC(CO)C(O)C(O)C2OC2CC(C)(NCc3ccc(Oc4ccccc4)cc3)C(O)C(C)O2)Oc2ccc(cc2Cl)C1O)N(C)C(=S)Nc1ccc(Cl)cc1 (stereo not shown) [Example 10, N^LEU -((p-CHLOROPHENYL)-THIOCARBAMOYL)-N^DISACC -(p-PHENOXYBENZYL)A82846B] | 9.5 | 1.7 | 4 | 2 | 2 | 1 | 2 | 2 | – | – |
| COc1ccc(NC(=S)N(C)C(CC(C)C)C(=O)NC2C(=O)NC(CC(N)=O)C(=O)NC3C(=O)NC4C(=O)NC(C(=O)NC(C(=O)O)c5cc(O)cc(O)c5-c5cc4ccc5O)C(OC4CC(C)(N)C(O)C(C)O4)c4ccc(c(Cl)c4)Oc4cc3cc(c4OC3OC(CO)C(O)C(O)C3OC3CC(C)(NCc4ccc(Oc5ccccc5)cc4)C(O)C(C)O3)Oc3ccc(cc3Cl)C2O)cc1 (stereo not shown) [Example 11, N^LEU -((p-METHOXYPHENYL)-THIOCARBAMOYL)-N^DISACC -(p-PHENOXYBENZYL)A82846B] | 38 | 2.6 | 4 | 2 | 2 | 1 | 2 | 2 | – | – |
| CCCCc1ccc(CNC2(C)CC(OC3C(Oc4c5cc6cc4Oc4ccc(cc4Cl)C(OC4CC(C)(N)C(O)C(C)O4)C4NC(=O)C(NC(=O)C6NC(=O)C(CC(N)=O)NC(=O)C(NC(=O)C(CC(C)C)N(C)C(=S)Nc6ccccc6)C(O)c6ccc(c(Cl)c6)O5)c5ccc(O)c(c5)-c5c(O)cc(O)cc5C(C(=O)O)NC4=O)OC(CO)C(O)C3O)OC(C)C2O)cc1 (stereo not shown) [Example 21, N^LEU -(PHENYLTHIOCARBAMOYL)-N^DISACC -(p-n-BUTYLBENZYL)-A82846B] | 32 | 2.6 | – | – | – | – | – | – | – | – |
| CC(C)CC(C(=O)NC1C(=O)NC(CC(N)=O)C(=O)NC2C(=O)NC3C(=O)NC(C(=O)NC(C(=O)O)c4cc(O)cc(O)c4-c4cc3ccc4O)C(OC3CC(C)(N)C(O)C(C)O3)c3ccc(c(Cl)c3)Oc3cc2cc(c3OC2OC(CO)C(O)C(O)C2OC2CC(C)(N)C(O)C(C)O2)Oc2ccc(cc2Cl)C1O)N(C)C(=O)Nc1ccccc1 (stereo not shown) [Example 23, N^LEU -(PHENYLCARBAMOYL)A82846B] | > 128 | 5.3 | 4 | 1 | 4 | 0.5 | 64 | 4 | – | – |
| CC(C)CC(C(=O)NC1C(=O)NC(CC(N)=O)C(=O)NC2C(=O)NC3C(=O)NC(C(=O)NC(C(=O)O)c4cc(O)cc(O)c4-c4cc3ccc4O)C(OC3CC(C)(N)C(O)C(C)O3)c3ccc(c(Cl)c3)Oc3cc2cc(c3OC2OC(CO)C(O)C(O)C2OC2CC(C)(NCc3ccc(Oc4ccccc4)cc3)C(O)C(C)O2)Oc2ccc(cc2Cl)C1O)N(C)C(=O)Nc1ccccc1 (stereo not shown) [Example 24, N^LEU -(PHENYLCARBAMOYL)-N^DISACC -(p-PHENOXYBENZYL)A82846B] | 16 | 0.87 | 2 | 1 | 1 | 0.25 | 1 | 1 | – | – |

From US5919771A, “Urea and thiourea derivatives of glycopeptides” (Eli Lilly and Company, priority 1998, dated 1999)
